Laboratory results from ChEMBL document CHEMBL1201862, “PubChem BioAssay data set” (2004).
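1) Cells in 96-well plates. 2) Compound, 48 h, 5 concentrations. 3) Linear interpolation between surrounding doses. 4) Unreached endpoint = highest concentration. Abbreviation: GI50, concentration required for 50% inhibition of growth.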 The source made the active and inactive calls. No stated cut-off is given here; in the data, active = GI50 up to about 1.1 µM and inactive = higher.

Experiments:
Assay in all cases: DTP human tumour cell line panel, 48 h
IGROV-1 = test system: IGROV-1
DU-145 = test system: DU-145
M14 = test system: M14
HT-29 = test system: HT-29
OVCAR-3 = test system: OVCAR-3
LOX IMVI = test system: LOX IMVI
NCI-H23 = test system: NCI-H23
HCC 2998 = test system: HCC 2998
PC-3 = test system: PC-3
SN12C = test system: SN12C
MCF7 = test system: MCF7
SK-MEL-5 = test system: SK-MEL-5
TK-10 = test system: TK-10
SF-268 = test system: SF-268
SF-539 = test system: SF-539
UACC-257 = test system: UACC-257
HL-60 = test system: HL-60
SK-MEL-28 = test system: SK-MEL-28
RXF 393 = test system: RXF 393
SR = test system: SR
OVCAR-8 = test system: OVCAR-8
HCT-116 = test system: HCT-116
T47D = test system: T47D
SK-OV-3 = test system: SK-OV-3
CAKI-1 = test system: CAKI-1
MDA-MB-231 = test system: MDA-MB-231
HCT-15 = test system: HCT-15
EKVX = test system: EKVX
NCI-H226 = test system: NCI-H226
SNB-75 = test system: SNB-75
NCI-H522 = test system: NCI-H522
MOLT-4 = test system: MOLT-4
OVCAR-5 = test system: OVCAR-5
HOP-92 = test system: HOP-92
U-251 = test system: U-251
786-0 = test system: 786-0
SW-620 = test system: SW-620
ACHN = test system: ACHN
BT-549 = test system: BT-549
KM12 = test system: KM12
MDA-N = test system: MDA-N
NCI/ADR-RES = test system: NCI/ADR-RES
NCI-H460 = test system: NCI-H460
COLO 205 = test system: COLO 205
K562 = test system: K562
Hs-578T = test system: Hs-578T
UO-31 = test system: UO-31
CCRF-CEM = test system: CCRF-CEM
SF-295 = test system: SF-295
A549 = test system: A549
SK-MEL-2 = test system: SK-MEL-2
RPMI-8226 = test system: RPMI-8226
UACC-62 = test system: UACC-62
Malme-3M = test system: Malme-3M
A498 = test system: A498
MDA-MB-435 = test system: MDA-MB-435
HOP-62 = test system: HOP-62
SNB-19 = test system: SNB-19
OVCAR-4 = test system: OVCAR-4

Measured: GI50

O=C(O)c1nc(-c2ccccc2)ncc1-c1nnnn1-c1ccccc1
> 100 µM: HCT-15
inactive: IGROV-1 > 100 µM | DU-145 > 100 µM | M14 > 100 µM | HT-29 > 100 µM | OVCAR-3 > 100 µM | LOX IMVI > 100 µM | NCI-H23 > 100 µM | HCC 2998 > 100 µM | PC-3 > 100 µM | SN12C > 100 µM | MCF7 > 100 µM | SK-MEL-5 > 100 µM | TK-10 > 100 µM | SF-268 > 100 µM | SF-539 > 100 µM | UACC-257 > 100 µM | HL-60 > 100 µM | SK-MEL-28 > 100 µM | RXF 393 > 100 µM | SR > 100 µM | OVCAR-8 > 100 µM | HCT-116 > 100 µM | T47D > 100 µM | SK-OV-3 > 100 µM | CAKI-1 > 100 µM | MDA-MB-231 > 100 µM | EKVX > 100 µM | NCI-H226 > 100 µM | SNB-75 > 100 µM | NCI-H522 > 100 µM | MOLT-4 > 100 µM | OVCAR-5 > 100 µM | HOP-92 > 100 µM | U-251 > 100 µM | 786-0 > 100 µM | SW-620 > 100 µM | ACHN > 100 µM | BT-549 > 100 µM | KM12 > 100 µM | MDA-N > 100 µM | NCI/ADR-RES > 100 µM | NCI-H460 > 100 µM | COLO 205 > 100 µM | K562 > 100 µM | Hs-578T > 100 µM | UO-31 > 100 µM | CCRF-CEM > 100 µM | SF-295 > 100 µM | A549 > 100 µM | SK-MEL-2 > 100 µM | RPMI-8226 > 100 µM | UACC-62 > 100 µM | Malme-3M > 100 µM | A498 > 100 µM | MDA-MB-435 > 100 µM | HOP-62 > 100 µM | SNB-19 > 100 µM

Cc1ccc(Cl)cc1/N=N/C(=O)NNc1cc(Cl)ccc1C
17.1 µM: HCT-15
inactive: IGROV-1 15.3 µM | DU-145 21.4 µM | M14 14.5 µM | HT-29 26.9 µM | OVCAR-3 14.7 µM | NCI-H23 19.4 µM | HCC 2998 40.4 µM | PC-3 10.1 µM | SN12C 29.4 µM | MCF7 27.8 µM | SK-MEL-5 14.2 µM | HL-60 58.9 µM | SK-MEL-28 18 µM | RXF 393 21 µM | SR 37.7 µM | HCT-116 25.4 µM | T47D 33.3 µM | SK-OV-3 20.3 µM | CAKI-1 13.1 µM | MDA-MB-231 16.8 µM | NCI-H226 20.1 µM | SNB-75 13.1 µM | NCI-H522 13.1 µM | MOLT-4 13.9 µM | OVCAR-5 15.8 µM | HOP-92 15.5 µM | U-251 19.7 µM | BT-549 18.2 µM | KM12 33.1 µM | MDA-N 31.8 µM | NCI/ADR-RES 19.9 µM | NCI-H460 18 µM | COLO 205 21.9 µM | K562 24.2 µM | Hs-578T 23.8 µM | UO-31 14.1 µM | CCRF-CEM 10 µM | SF-295 19.4 µM | SK-MEL-2 13.9 µM | RPMI-8226 19.9 µM | UACC-62 11.2 µM | Malme-3M 24 µM | A498 20.3 µM | MDA-MB-435 25.2 µM | HOP-62 10.8 µM | SNB-19 19.4 µM

CC(C)(C)OC(=O)NC(CCCCNC(=O)OCc1ccccc1)C(=O)NCCNc1ccc(NCCNC(=O)C(CCCCNC(=O)OCc2ccccc2)NC(=O)OC(C)(C)C)c2c1C(=O)c1ccccc1C2=O (configuration not stated)
active: HL-60 1.02 µM | RPMI-8226 1.02 µM
inactive: IGROV-1 29.3 µM | DU-145 > 100 µM | M14 > 100 µM | HT-29 > 100 µM | OVCAR-3 > 79.4 µM | LOX IMVI > 90.8 µM | NCI-H23 27.5 µM | HCC 2998 8.67 µM | PC-3 > 100 µM | SN12C > 100 µM | MCF7 6.97 µM | SK-MEL-5 > 100 µM | TK-10 > 100 µM | SF-268 > 31.8 µM | SF-539 17.6 µM | UACC-257 > 100 µM | SK-MEL-28 14.7 µM | RXF 393 25.7 µM | SR 24.3 µM | OVCAR-8 8.36 µM | HCT-116 24.5 µM | T47D 5.11 µM | SK-OV-3 25.4 µM | OVCAR-4 > 100 µM | CAKI-1 > 100 µM | MDA-MB-231 5.85 µM | EKVX > 100 µM | NCI-H226 > 86.5 µM | SNB-75 15.3 µM | NCI-H522 10.3 µM | MOLT-4 > 100 µM | OVCAR-5 > 100 µM | HOP-92 > 42.3 µM | U-251 3.18 µM | 786-0 > 56.9 µM | SW-620 70.6 µM | ACHN > 100 µM | BT-549 > 71 µM | KM12 25.6 µM | MDA-N 26.4 µM | NCI/ADR-RES 19.8 µM | NCI-H460 > 100 µM | COLO 205 27.2 µM | Hs-578T 4.68 µM | UO-31 > 89.7 µM | SF-295 > 93.8 µM | A549 > 100 µM | SK-MEL-2 6.44 µM | UACC-62 23 µM | Malme-3M > 86.3 µM | A498 > 100 µM | MDA-MB-435 31.5 µM | HOP-62 23.9 µM | SNB-19 10.5 µM
> 100 µM: HCT-15
